Source: US20210283176A1, “CALCIUM BINDER FOR USE IN PREVENTING STILLBIRTH” (Nutreco IP Assets B.V, priority 2017, published 2021)

Tested on: sows
Conditions: phosphoric acid 0.01 mol/liter (1 g/L), 25 sows, control 1.6 (24 sows)
Procedure: A calcium binder (phosphoric acid, PhA)) was added in a concentration of 0.01 mol/liter (corresponding to 1 g/L of phosphoric acid). The diets fed to the sows were the same.

In the case of `O=P(O)(O)O` [PhA, phosphoric acid], the “Stillborn piglets, #” value is reported as 1.1.
